Data: patent US20260259231A1, “METHODS AND DEVICES FOR DETECTION OF COAGULATION IMPAIRMENT” (Coagulo Medical Technologies, Inc., priority 2021, published 2026)
Where two headings read alike, the source gives them in different places.

Legend:
[1] = tested on: coagulation cascade (FXa, FIIa, FXI inhibition); test: Clotting time of inhibitor-spiked blood samples on addition of buffer, FXa or FIIa (FIG. 33B); settings: for clotting time, control condition: no exogenous factor added, contact activation pathway activator; for clotting time upon addition of exogenous FIIa: two concentrations of FIIa; for clotting time upon addition of exogenous FXa: two concentrations of FXa
Description: The control condition (where no exogenous factor is added) utilizes an activator of the contact activation pathway to activate FXII to FXIIa. FIG. 33B is a bar graph showing the clotting time responses to the addition of buffer (control), two concentrations of FXa, and two concentrations of FIIa. […] The amount of exogenous FIIa added to the sample was inadequate to overcome all of the FIIa inhibition present in the sample. In these examples in FIG. 33B, when a sample's clotting time normalizes to the negative control clotting time, such a result is also described as an “unaffected” clotting time in the figures depicting the pathways.

[2] = target: FXI (Homo sapiens, UniProt P03951); test: Clotting time of inhibitor-spiked whole blood samples on addition of exogenous FXI (FIG. 33A, 33C); settings: FIG. 33C; FXI inhibitor at Conc 1<Conc 2<Conc 3
Sequence of FXI (P03951 19-625, species assumed): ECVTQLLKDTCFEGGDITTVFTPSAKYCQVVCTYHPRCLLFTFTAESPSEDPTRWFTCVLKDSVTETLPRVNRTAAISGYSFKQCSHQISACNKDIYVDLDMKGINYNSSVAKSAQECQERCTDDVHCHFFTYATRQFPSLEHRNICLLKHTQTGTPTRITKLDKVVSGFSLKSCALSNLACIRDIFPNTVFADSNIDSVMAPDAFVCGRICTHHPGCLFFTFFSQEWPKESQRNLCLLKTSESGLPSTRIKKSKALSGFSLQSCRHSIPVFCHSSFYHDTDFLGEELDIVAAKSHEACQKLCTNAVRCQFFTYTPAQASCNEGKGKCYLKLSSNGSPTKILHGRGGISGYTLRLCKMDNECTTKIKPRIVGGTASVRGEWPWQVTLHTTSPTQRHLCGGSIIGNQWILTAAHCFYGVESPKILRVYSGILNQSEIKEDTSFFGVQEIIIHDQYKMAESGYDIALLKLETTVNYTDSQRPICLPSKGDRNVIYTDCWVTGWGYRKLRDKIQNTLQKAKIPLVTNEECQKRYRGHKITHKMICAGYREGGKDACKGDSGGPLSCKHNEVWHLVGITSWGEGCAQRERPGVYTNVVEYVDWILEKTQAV
Description: FIG. 33A provides representative clotting-curves of whole blood samples spiked with a concentration of FXI inhibitor (inh) (Conc 1<Conc 2<Conc 3); no inhibitor was added to the negative control. The curves show the samples' respective changes in clotting time as a response to the addition of increasing concentrations of exogenous FXI.
FIG. 33C reports the effect of the addition of exogenous FXI on the clotting time of various samples. In this example, the negative control, containing no inhibitor, has an unaffected clotting time with the addition of FXI.

[3] = PT and INR of patients on FXa-I versus controls; type: in vivo, human; settings: patients documented to be on FXa-I; significance p<0.05
Text: FIGS. 18A-18C illustrate prothrombin time (PT) and international normalized ratio (INR) is sensitive but not specific for FXa-I anticoagulation. Both PT and INR were compared between control patients and patients documented to be on FXa-I. Abnormal PT was defined as >14 seconds and abnormal INR was defined as >1.2. […] One-way ANOVA was used to compare normal and abnormal controls with both rivaroxaban and apixaban. Significance was defined as p<0.05.

[4] = target: T1, FXa (Homo sapiens, UniProt P00742); test: Clotting curves of citrated plasma from emergency department patients on FXa-I; type: in vivo; settings: patient plasma samples
T1 construct: Citrated plasma samples were collected from patients; from tissue; host or cells: citrated plasma of patients
T1 sequence (P00742 235-488 limits assumed): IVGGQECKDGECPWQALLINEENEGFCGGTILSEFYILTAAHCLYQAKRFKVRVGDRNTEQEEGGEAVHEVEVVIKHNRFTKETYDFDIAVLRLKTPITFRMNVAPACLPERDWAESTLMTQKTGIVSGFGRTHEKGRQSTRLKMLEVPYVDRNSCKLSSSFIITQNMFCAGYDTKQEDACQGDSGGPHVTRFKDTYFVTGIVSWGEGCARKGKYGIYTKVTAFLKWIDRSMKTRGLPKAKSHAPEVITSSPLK
T1 sequence (P00742 41-179 partner limits assumed): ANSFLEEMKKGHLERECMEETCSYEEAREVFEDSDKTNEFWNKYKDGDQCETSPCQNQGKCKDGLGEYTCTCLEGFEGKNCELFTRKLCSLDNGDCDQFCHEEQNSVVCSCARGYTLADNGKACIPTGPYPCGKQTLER
Description: Citrated plasma samples were collected from patients admitted into the Massachusetts General Hospital Emergency Department. All plasma samples had clinician-ordered coagulation tests (PT/INR, aPTT, DTT, or other). Patient samples were evaluated using an embodiment of the assay described herein. Patient medical records were reviewed for the administration of history of anticoagulants.
Clotting times were compared at various agonist concentrations for all the patient groups to construct clotting curves.

[5] = target: Factor Xa (FXa) (Homo sapiens, UniProt P00742); test: Microfluidic clotting-curve assay, plasma spiked with FXa inhibitor, FXa agonist gradient; type: biochemical
Sequence of Factor Xa (FXa) (P00742 235-488 limits assumed): as the sequence (P00742 235-488 limits assumed) above
Sequence of Factor Xa (FXa) (P00742 41-179 partner limits assumed): as the sequence (P00742 41-179 partner limits assumed) above
Text: (§1) A general protocol for performing the assay according to an embodiment of the invention is as follows: • a) Add together sample, agonist, +/−calcium, +/−clot detection agent • i. Calcium to a final concentration between 0.005-0.05 M (This concentration is particularly suitable for use with 3.2% buffered sodium citrate. If another anticoagulant is used, the concentration of calcium may not be 0.02 M.) • ii. Clot detection agents can include fluorescent labeled fibrinogen, magnets, beads (may be fluorescent or colored) • b) Load into microfluidic device • i. See, e.g., FIGS. 1A-1D, 2A and 2B for examples of input loading configuration and order • c) Temperature control • i. Room temperature • ii. May increase up to 37° C.
(§2) In an example, the process of clot detection can include the following procedural steps: • a) A plasma sample is pre-mixed to include: 6 μL plasma+0.6 μL agonist (10% volume to sample)+0.6 μL Calcium (stock 200 mM, 10% volume to sample)+0.6 μL Fibrinogen (this can vary in concentration, in general <10% volume of sample).
(§3) The time it takes for each of the combinations to form a clot is then plotted. […] Concentration of the agonist (FXa for FIGS. 7A-7C, and FIIa for FIG. 7D) is plotted on the X-axis for each of the figures. The units on the X-axis “ng/mL” refer to ng×10^3/mL.

[6] = target: FIIa (Homo sapiens, UniProt P00734)
Text: as §1, §2, §3

[7] = tested on: contact activation pathway (intrinsic pathway); test: Clotting times of control and factor-deficient plasmas with exogenous coagulation factors (FIG. 25); type: biochemical
Text: FIG. 25 is a table providing representative clotting times (minutes:seconds) for various plasma samples in the presence of exogenous coagulation factors. […] The clotting time for the control plasma, with no exogenous factor added (negative control), represents the clotting time based on activation of the contact activation pathway (intrinsic pathway); this clotting time can be designated as normal clotting time. […] The clotting time of the FVIII-deficient plasma decreases with the addition of FVIII or FIXa. […] The clotting time of FIX-deficient plasma decreases with the addition of exogenous FIX or FIXa. In all plasma samples, exogenous FXa is used as a positive control to confirm the ability of the plasma sample to clot. FIIa can also be used for this purpose.

[8] = target: Factor IX (Homo sapiens, UniProt P00740); test: Clotting curve, Factor IX added to FIX-deficient plasma or plasma with anti-Factor IX antibodies (FIG. 26); type: biochemical
Sequence of Factor IX (P00740 29-461 limits assumed): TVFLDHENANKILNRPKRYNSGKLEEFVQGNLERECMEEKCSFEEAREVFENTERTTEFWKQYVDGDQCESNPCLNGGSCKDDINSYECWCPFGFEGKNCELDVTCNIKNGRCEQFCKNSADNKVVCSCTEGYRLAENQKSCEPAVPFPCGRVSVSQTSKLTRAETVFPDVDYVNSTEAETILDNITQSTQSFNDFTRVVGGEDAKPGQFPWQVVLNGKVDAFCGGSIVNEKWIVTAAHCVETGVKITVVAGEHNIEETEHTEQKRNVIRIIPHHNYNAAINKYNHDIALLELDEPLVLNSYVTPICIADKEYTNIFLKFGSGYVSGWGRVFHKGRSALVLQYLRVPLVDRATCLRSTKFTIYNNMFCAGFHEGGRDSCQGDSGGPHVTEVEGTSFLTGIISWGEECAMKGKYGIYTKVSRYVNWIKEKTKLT
Text: It should be understood that the use of exogenous factor addition to a plasma sample may not be able to differentiate between deficiency and low quantities of inhibitors, for example, if the concentration of the inhibitor is low enough such that a physiological level of the factor is able to overcome the functional inhibition resulting in a normalized clotting time. Additionally, the inhibitor detected using the clotting time approach is a functional inhibitor such that the inhibitor decreases the factor's ability to propagate a blood clot.

[9] = tested on: Factors IIa and Xa; test: Whole blood clot detection in parallel microfluidic channels pre-coated with FXa; settings: whole blood with unfractionated heparin, 10 minutes
Description: FIGS. 4A and 4B are fluorescent images illustrating clot detection using whole blood in a parallel microfluidic channel device 410 according to an example embodiment. Microfluidic channels 420 were pre-coated with agonist, Factor Xa, at various concentrations (7.5 ng/ml, 75 ng/ml, 750 ng/ml; units “ng/mL” refer to ng×10^3/mL) or with buffer alone (negative control). The fluorescent images are taken at one time point (10 minutes). Microfluidic channels were washed with buffer prior to use to leave only bound FXa within the microfluidic channel. Fresh whole blood was placed into each input port and the blood was drawn in through capillary action. The blood was left to flow for 10 minutes and then the channel was gently washed with buffer. Depicted is a brightfield image of two samples evaluated. […] Unfractionated heparin inhibits Factors IIa and Xa in an antithrombin III-dependent fashion, which is why the addition of these factors at appropriate concentrations can help recover the clotting capability of the sample.

COc1ccc(-n2nc(C(N)=O)c3c2C(=O)N(c2ccc(N4CCCCC4=O)cc2)CC3)cc1 [Apixaban]
clotting time, control condition [1]: prolongation of clotting time
clotting time upon addition of exogenous FIIa [1]: shortened and normalized clotting time
clotting time upon addition of exogenous FXa [1]: concentration-dependent clotting-time response
clotting time with addition of exogenous FXI [2]: prolongation in clotting time
PT and INR compared to abnormal controls (one-way ANOVA) [3]: no significance

O=C(NC[C@H]1CN(c2ccc(N3CCOCC3=O)cc2)C(=O)O1)c1ccc(Cl)s1 [Rivaroxaban]
clotting times at various agonist concentrations, patient group versus control group [4]: very different from the control group
PT and INR compared to abnormal controls (one-way ANOVA) [3]: no significance
clot formation time versus negative control ([5]; 250 ng/mL Rivaroxaban, FXa agonist down to 375 ng×10^3/mL): significantly longer than the negative control but lower than 500 ng/mL
agonist (FXa) concentration down to which clot formation detected in <[…] ([5]; 500 ng/ml Rivaroxaban): 750 ng×10^3/mL
clot formation detection time ([5]; 500 ng/ml Rivaroxaban, FXa agonist down to 750 ng×10^3/mL): < 2.5 min

Dabigatran
clotting time, control condition [1]: prolongation of clotting time
clotting time upon addition of exogenous FIIa [1]: concentration-dependent change in clotting time
clotting time upon addition of exogenous FXa [1]: relatively small concentration-dependent change in clotting time
clot formation detection time ([6]; 250 ng/mL Dabigatran, FIIa agonist down to 710 ng×10^3/mL): < 2.5 min
clot formation detection time ([6]; 500 ng/ml Dabigatran, FIIa agonist down to 710 ng×10^3/mL): < 2.5 min
clot formation detection time ([6]; <25 ng/ml Dabigatran, FIIa agonist down to 71 ng×10^3/mL): < 2.5 min

FIX: exogenous coagulation Factor IX, inactive form
clotting time upon addition of exogenous factor ([7]; FIX-deficient plasma): decreases
clotting time upon addition of exogenous factor ([7]; FVIII-deficient plasma): prolonged clotting time
clotting time upon addition of exogenous factor ([7]; FXI-deficient plasma): prolonged clotting time
clotting time upon addition of exogenous factor ([7]; control (normal) plasma): slight decrease in clotting time
concentration of added factor needed for normal clotting time ([8]; Factor IX-deficient plasma): requires a physiological concentration of replacement factor
concentration of added factor needed to decrease clotting time ([8]; plasma containing anti-Factor IX antibodies): requires supra-physiological concentrations of the factor

FXI: exogenous coagulation Factor XI, inactive form
clotting time upon addition of exogenous factor ([7]; FIX-deficient plasma): prolonged clotting time
clotting time upon addition of exogenous factor ([7]; FVIII-deficient plasma): prolonged clotting time
clotting time upon addition of exogenous factor ([7]; FXI-deficient plasma): decreases
clotting time upon addition of exogenous factor ([7]; control (normal) plasma): slight decrease in clotting time

unfractionated heparin
clot formation in negative control channel (buffer alone) [9]: minimal clot formation
clot formation in FXa-coated channels ([9]; FXa 7.5, 75, 750 ng×10^3/mL): gradient of clot formation dependent on the concentration of FXa in the channel
